Measurements published in patent US20050245399A1, “Pyrazole derivatives as herbicidal compositions containing them” (ISHIHARA SANGYO KAISHA, LTD., priority 2004, published 2005).

How the values were obtained:
Assay type in all cases: in vivo
[1] = tested on: barnyardgrass (Echinochloa crus-galli L.): ECHCG; experiment: Test Example 1 pre-emergence herbicidal activity, ECHCG; conditions: visually observed 20th to 23rd day after application
In short: (§1)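 Seeds sown in upland field soil in pots; one day later compound, formulated as wettable powder or emulsifiable concentrate and diluted with water at 500 L/ha, sprayed pre-emergence at a predetermined active-ingredient rate. Growth control scored visually 20–23 days after application, 0 (untreated-like) to 100 (complete kill) %.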

[2] = tested on: crabgrass (Digitaria sanguinalis L.): DIGSA; experiment: Test Example 1 pre-emergence herbicidal activity, DIGSA; conditions: visually observed 20th to 23rd day after application
In short: as §1

[3] = tested on: green foxtail (Setaria viridis L.): SETVI; experiment: Test Example 1 pre-emergence herbicidal activity, SETVI; conditions: visually observed 20th to 23rd day after application
In short: as §1

[4] = tested on: redroot pigweed (Amaranthus retroflexus L.): AMARE; experiment: Test Example 1 pre-emergence herbicidal activity, AMARE; conditions: visually observed 20th to 23rd day after application
In short: as §1

[5] = tested on: prickly sida (Sida spinosa L.): SEDSP; experiment: Test Example 1 pre-emergence herbicidal activity, SIDSP; conditions: visually observed 20th to 23rd day after application
In short: as §1

[6] = tested on: velvetleaf (Abutilon theophrasti): ABUTH; experiment: Test Example 1 pre-emergence herbicidal activity, ABUTH; conditions: visually observed 20th to 23rd day after application
In short: as §1

[7] = tested on: rice (Oryza sativa L.): ORYSA; experiment: Test Example 1 pre-emergence herbicidal activity, ORYSA; conditions: visually observed 20th to 23rd day after application
In short: as §1

[8] = tested on: wheat (Triticum aestivum L.): TRZAX; experiment: Test Example 1 pre-emergence herbicidal activity, TRZAX; conditions: visually observed 20th to 23rd day after application
In short: as §1

[9] = tested on: corn (Zea mays L.): ZEAMX; experiment: Test Example 1 pre-emergence herbicidal activity, ZEAMX; conditions: visually observed 20th to 23rd day after application
In short: as §1

[10] = tested on: soybean (Glycine max Merr.): GLXMA; experiment: Test Example 1 pre-emergence herbicidal activity, GLXMA; conditions: visually observed 20th to 23rd day after application
In short: as §1

[11] = tested on: barnyardgrass (Echinochloa crus-galli L.), ECHCG; experiment: Test Example 2 post-emergence (foliage treatment) herbicidal activity, ECHCG
In short: (§2)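 Pot-grown plants in upland soil were sprayed over the foliage at ECHCG 1.1-2.1, DIGSA 1.0-2.0, AMARE 0.1-1.5 and ORYSA 1.0-2 leaf stage. Wettable powder or emulsifiable concentrate was diluted in water at 500 L/ha plus 0.1% (v/v) spreader. Growth control was scored visually 20-23 days later, 0 (untreated) to 100% (complete kill).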

[12] = tested on: crabgrass (Digitaria sanguinalis L.), DIGSA; experiment: Test Example 2 post-emergence (foliage treatment) herbicidal activity, DIGSA
In short: as §2

[13] = tested on: green foxtail (Setaria viridis L.), SETVI; experiment: Test Example 2 post-emergence (foliage treatment) herbicidal activity, SETVI
In short: (§3)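 A small sprayer delivered the diluted WP or EC formulation (500 L/ha water, 0.1% v/v spreader) over emerged seedlings in upland soil pots. Damage relative to untreated plants was graded visually from 0 to 100% three weeks or so later (days 20-23).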

[14] = tested on: redroot pigweed (Amaranthus retroflexus L.), AMARE; experiment: Test Example 2 post-emergence (foliage treatment) herbicidal activity, AMARE
In short: as §2

[15] = tested on: prickly sida (Sida spinosa L.), SIDSP; experiment: Test Example 2 post-emergence (foliage treatment) herbicidal activity, SIDSP
In short: as §3

[16] = tested on: velvetleaf (Abutilon theophrasti), ABUTH; experiment: Test Example 2 post-emergence (foliage treatment) herbicidal activity, ABUTH
In short: as §3

[17] = tested on: rice (Oryza sativa L.), ORYSA; experiment: Test Example 2 post-emergence (foliage treatment) herbicidal activity, ORYSA
In short: as §2

[18] = tested on: wheat (Triticum aestivum L.), TRZAX; experiment: Test Example 2 post-emergence (foliage treatment) herbicidal activity, TRZAX
In short: as §3

[19] = tested on: corn (Zea mays L.), ZEAMX; experiment: Test Example 2 post-emergence (foliage treatment) herbicidal activity, ZEAMX
In short: as §3

[20] = tested on: soybean (Glycine max Merr.), GLXMA; experiment: Test Example 2 post-emergence (foliage treatment) herbicidal activity, GLXMA
In short: as §3

[21] = tested on: barnyardgrass (Echinochiloa oryzicola: ECHOR); experiment: Test Example 3 water application herbicidal activity (paddy), ECHOR; conditions: 63 g a.i./ha, water application under submerged condition at 0.5 leaf stage, visually observed 14th day after application; 0 = untreated control, 100 = complete kill
In short: (§4)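 Submerged application in flooded paddy soil (3–4 cm water); weeds treated at 0.5-leaf stage, transplanted rice 4 d after transplanting. Scored visually as % growth control: weeds at 14 d, rice at 21 d.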

[22] = tested on: japanese bulrush (Scirpus juncoides: SCPJO); experiment: Test Example 3 water application herbicidal activity (paddy), SCPJO; conditions: 63 g a.i./ha, water application under submerged condition at 0.5 leaf stage, visually observed 14th day after application; 0 = untreated control, 100 = complete kill
In short: as §4

[23] = tested on: japanese ribbon wapato (Sagittaria pygmaea: SA GPY); experiment: Test Example 3 water application herbicidal activity (paddy), SAGPY; conditions: 63 g a.i./ha, water application under submerged condition, tubers planted, visually observed 14th day after application; 0 = untreated control, 100 = complete kill
In short: as §4

[24] = tested on: rice (Oryza sativa L.: ORYSA); experiment: Test Example 3 water application herbicidal activity (paddy), transplanted rice ORYSA; conditions: 63 g a.i./ha, water application 4th day after transplantation of 2 leaf stage rice, visually observed 21st day after application; 0 = untreated control, 100 = complete kill
In short: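 Compound, as diluted wettable powder or emulsifiable concentrate, was pipetted into flood water at a set active-ingredient dose. Weeds were treated at 0.5-leaf stage after sowing or tuber planting; 2-leaf rice 4 days post-transplant. Control scored visually, 0 untreated to 100 complete kill, weeds day 14, rice day 21.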

| SMILES | growth controlling degree, ECHCO ([11]; 63 g a.i./ha) [%] | growth controlling degree, DIGSP ([12]; 63 g a.i./ha) [%] | growth controlling degree, SETVI ([13]; 63 g a.i./ha) [%] | growth controlling degree, AMARE ([14]; 63 g a.i./ha) [%] | growth controlling degree, SIDSP ([15]; 63 g a.i./ha) [%] | growth controlling degree, ABUTH ([16]; 63 g a.i./ha) [%] | growth controlling degree, ORYSA ([17]; 63 g a.i./ha) [%] | growth controlling degree, TRZAX ([18]; 63 g a.i./ha) [%] | growth controlling degree, ZEAMX ([19]; 63 g a.i./ha) [%] | growth controlling degree, GLXMA ([20]; 63 g a.i./ha) [%] | growth controlling degrees (%) ECHOR [21] [%] | growth controlling degrees (%) SCPJO [22] [%] | growth controlling degrees (%) SAGPY [23] [%] | growth controlling degrees (%) ORYSA [24] [%] | Pre-emergence Herbicidal Activity ECHCG (growth controlling degree) ([1]; Rate 63 g a.i./ha) [%] | Pre-emergence Herbicidal Activity DIGSP (growth controlling degree) ([2]; Rate 63 g a.i./ha) [%] | Pre-emergence Herbicidal Activity SETVI (growth controlling degree) ([3]; Rate 63 g a.i./ha) [%] | Pre-emergence Herbicidal Activity AMARE (growth controlling degree) ([4]; Rate 63 g a.i./ha) [%] | Pre-emergence Herbicidal Activity SIDSP (growth controlling degree) ([5]; Rate 63 g a.i./ha) [%] | Pre-emergence Herbicidal Activity ABUTH (growth controlling degree) ([6]; Rate 63 g a.i./ha) [%] | further results |
| --- | --- | --- | --- | --- | --- | --- | --- | --- | --- | --- | --- | --- | --- | --- | --- | --- | --- | --- | --- | --- | --- |
| COc1c(Cl)cc(F)c(-c2nn(C)c(OC(F)F)c2Cl)c1N(C(=O)OCCl)C(=O)OCCl [Compound 1-55] | 60 | 0 | 30 | 100 | 100 | 100 | 50 | 10 | 10 | 30 | 100 | 95 | 100 | 50 | – | – | – | – | – | – | Pre-emergence Herbicidal Activity ECHCG (growth controlling degree) ([1]; Rate 125 g a.i./ha): 50%; Pre-emergence Herbicidal Activity DIGSP (growth controlling degree) ([2]; Rate 125 g a.i./ha): 95%; Pre-emergence Herbicidal Activity SETVI (growth controlling degree) ([3]; Rate 125 g a.i./ha): 100%; Pre-emergence Herbicidal Activity AMARE (growth controlling degree) ([4]; Rate 125 g a.i./ha): 100%; Pre-emergence Herbicidal Activity SIDSP (growth controlling degree) ([5]; Rate 125 g a.i./ha): 95%; Pre-emergence Herbicidal Activity ABUTH (growth controlling degree) ([6]; Rate 125 g a.i./ha): 70%; Pre-emergence Herbicidal Activity ORYSA (growth controlling degree) ([7]; Rate 125 g a.i./ha): 10%; Pre-emergence Herbicidal Activity TRZAX (growth controlling degree) ([8]; Rate 125 g a.i./ha): 20%; Pre-emergence Herbicidal Activity ZEAMX (growth controlling degree) ([9]; Rate 125 g a.i./ha): 0%; Pre-emergence Herbicidal Activity GLXMA (growth controlling degree) ([10]; Rate 125 g a.i./ha): 0% |
| COc1c(Cl)cc(F)c(-c2nn(C)c(OC(F)F)c2Cl)c1N [Compound 1-90, 3-chloro-6-[4-chloro-5-(difluoromethoxy)-1-methyl-1H-pyrazol-3-yl]-5-fluoro-2-methoxybenzenamine] | – | – | – | – | – | – | – | – | – | – | 100 | 98 | 98 | 50 | 98 | 100 | 100 | 100 | 98 | 100 | Pre-emergence Herbicidal Activity ORYSA (growth controlling degree) ([7]; Rate 63 g a.i./ha): 60%; Pre-emergence Herbicidal Activity TRZAX (growth controlling degree) ([8]; Rate 63 g a.i./ha): 50%; Pre-emergence Herbicidal Activity ZEAMX (growth controlling degree) ([9]; Rate 63 g a.i./ha): 30%; Pre-emergence Herbicidal Activity GLXMA (growth controlling degree) ([10]; Rate 63 g a.i./ha): 40%; growth controlling degree, ECHCO ([11]; 31 g a.i./ha): 100%; growth controlling degree, DIGSP ([12]; 31 g a.i./ha): 100%; growth controlling degree, SETVI ([13]; 31 g a.i./ha): 100%; growth controlling degree, AMARE ([14]; 31 g a.i./ha): 100%; growth controlling degree, SIDSP ([15]; 31 g a.i./ha): 100%; growth controlling degree, ABUTH ([16]; 31 g a.i./ha): 100%; growth controlling degree, ORYSA ([17]; 31 g a.i./ha): 98%; growth controlling degree, TRZAX ([18]; 31 g a.i./ha): 95%; growth controlling degree, ZEAMX ([19]; 31 g a.i./ha): 98%; growth controlling degree, GLXMA ([20]; 31 g a.i./ha): 98% |
| COc1c(Cl)cc(F)c(-c2nn(C)c(OC(F)F)c2Cl)c1NC(=O)c1ccccc1Cl [Compound 1-23] | 98 | 90 | 100 | 100 | 100 | 100 | 90 | 40 | 80 | 98 | 100 | 80 | 98 | 40 | 80 | 100 | 95 | 100 | 100 | 90 | Pre-emergence Herbicidal Activity ORYSA (growth controlling degree) ([7]; Rate 63 g a.i./ha): 40%; Pre-emergence Herbicidal Activity TRZAX (growth controlling degree) ([8]; Rate 63 g a.i./ha): 40%; Pre-emergence Herbicidal Activity ZEAMX (growth controlling degree) ([9]; Rate 63 g a.i./ha): 0%; Pre-emergence Herbicidal Activity GLXMA (growth controlling degree) ([10]; Rate 63 g a.i./ha): 30% |
| COC(=O)CN(C=O)c1c(OC)c(Cl)cc(F)c1-c1nn(C)c(OC(F)F)c1Cl [Compound 1-20] | 10 | 20 | 70 | 100 | 90 | 60 | 50 | 10 | 40 | 50 | 90 | 20 | 0 | 30 | – | – | – | – | – | – | Pre-emergence Herbicidal Activity ECHCG (growth controlling degree) ([1]; Rate 125 g a.i./ha): 10%; Pre-emergence Herbicidal Activity DIGSP (growth controlling degree) ([2]; Rate 125 g a.i./ha): 30%; Pre-emergence Herbicidal Activity SETVI (growth controlling degree) ([3]; Rate 125 g a.i./ha): 10%; Pre-emergence Herbicidal Activity AMARE (growth controlling degree) ([4]; Rate 125 g a.i./ha): 100%; Pre-emergence Herbicidal Activity SIDSP (growth controlling degree) ([5]; Rate 125 g a.i./ha): 98%; Pre-emergence Herbicidal Activity ABUTH (growth controlling degree) ([6]; Rate 125 g a.i./ha): 80%; Pre-emergence Herbicidal Activity ORYSA (growth controlling degree) ([7]; Rate 125 g a.i./ha): 0%; Pre-emergence Herbicidal Activity TRZAX (growth controlling degree) ([8]; Rate 125 g a.i./ha): 0%; Pre-emergence Herbicidal Activity ZEAMX (growth controlling degree) ([9]; Rate 125 g a.i./ha): 0%; Pre-emergence Herbicidal Activity GLXMA (growth controlling degree) ([10]; Rate 125 g a.i./ha): 10% |
| COc1c(Cl)cc(F)c(-c2nn(C)c(OC(F)F)c2Cl)c1NC(=O)/C=C/c1ccccc1 [Compound 1-31] | 80 | 80 | 95 | 100 | 100 | 100 | 60 | 20 | 40 | 60 | 100 | 60 | 95 | 40 | 80 | 100 | 100 | 100 | 100 | 100 | Pre-emergence Herbicidal Activity ORYSA (growth controlling degree) ([7]; Rate 63 g a.i./ha): 50%; Pre-emergence Herbicidal Activity TRZAX (growth controlling degree) ([8]; Rate 63 g a.i./ha): 10%; Pre-emergence Herbicidal Activity ZEAMX (growth controlling degree) ([9]; Rate 63 g a.i./ha): 10%; Pre-emergence Herbicidal Activity GLXMA (growth controlling degree) ([10]; Rate 63 g a.i./ha): 10% |
